What was measured:
[1] = biological target: JAK2 kinase domain (JH1) (Homo sapiens (Human), UniProt O60674); test: JAK2 Radioactive Kinase Assay; format: biochemical; conditions: for inhibition at 10 µM: read-out: JAK2 JH1% Inhibition @ 10 μM
Procedure: (§1) The Tyk2 and JAK2 radioactive kinase assay measures the percent inhibition at the Tyk2 kinase domain (DH1) and the percent inhibition at the JAK2 kinase domain (JH1). Results of the assay are expressed as percent inhibition at 10 μM.

[2] = biological target: Tyk2 kinase domain (DH1) (Homo sapiens (Human), UniProt P29597); test: Tyk2 Radioactive Kinase Assay; format: biochemical; conditions: compound at 10 μM; ATP 10 μM
Procedure: as §1

[3] = biological target: human TYK2 (JH2domain-pseudokinase) (Homo sapiens (Human), UniProt P29597); test: TYK2 JH2 Domain Binding Assay (KINOMEscan)
Method in brief: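 Competition binding of an NFkB-DBD fusion of human TYK2 JH2 (G556–D888), expressed in HEK293 and used as crude extract at <0.1 nM, against immobilized ligand beads; 1 h at room temperature in PBS/Tween/DTT/BSA buffer, 0.9% DMSO.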

Sequence of Tyk2 kinase domain (DH1) (P29597 897-1176): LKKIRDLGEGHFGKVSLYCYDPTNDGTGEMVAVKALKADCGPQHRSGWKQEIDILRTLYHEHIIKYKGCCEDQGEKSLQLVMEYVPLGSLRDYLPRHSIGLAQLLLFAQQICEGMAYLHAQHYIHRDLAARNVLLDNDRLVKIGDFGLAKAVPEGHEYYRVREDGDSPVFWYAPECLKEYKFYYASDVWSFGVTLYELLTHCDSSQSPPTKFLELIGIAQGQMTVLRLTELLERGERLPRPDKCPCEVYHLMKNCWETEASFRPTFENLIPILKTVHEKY
Sequence of JAK2 kinase domain (JH1) (O60674 849-1124): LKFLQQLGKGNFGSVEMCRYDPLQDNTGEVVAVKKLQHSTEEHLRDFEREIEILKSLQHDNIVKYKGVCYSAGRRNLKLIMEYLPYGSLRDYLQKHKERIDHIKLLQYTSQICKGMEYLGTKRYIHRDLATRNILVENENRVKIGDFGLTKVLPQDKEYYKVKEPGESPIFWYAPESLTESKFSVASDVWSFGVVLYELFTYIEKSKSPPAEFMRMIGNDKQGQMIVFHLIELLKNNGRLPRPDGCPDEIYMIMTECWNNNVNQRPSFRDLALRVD
Sequence of human TYK2 (JH2domain-pseudokinase) (P29597 556-888): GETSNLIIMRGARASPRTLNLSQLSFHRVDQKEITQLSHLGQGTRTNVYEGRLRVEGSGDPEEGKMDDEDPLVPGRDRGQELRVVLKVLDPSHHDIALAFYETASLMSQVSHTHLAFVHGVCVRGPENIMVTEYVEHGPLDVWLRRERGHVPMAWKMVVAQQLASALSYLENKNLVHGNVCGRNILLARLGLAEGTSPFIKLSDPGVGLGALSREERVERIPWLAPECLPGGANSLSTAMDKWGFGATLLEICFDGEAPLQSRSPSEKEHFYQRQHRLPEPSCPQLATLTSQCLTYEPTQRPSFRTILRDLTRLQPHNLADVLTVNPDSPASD

Structure (SMILES) | Kd [3] [nM] | further results
CNc1cc(-c2cn(C(C)C)c3ncccc23)nc2c(C(=O)N[C@@H]3C[C@H]3O)cnn12 (stereo in doubt) [I-732, N-((1R,2R)-2-hydroxycyclopropyl)-5-(1-isopropyl-1H-pyrrolo[2,3-b]pyridin-3-yl)-7-(methylamino)pyrazolo[1,5-a]pyrimidine-3-carboxamide] | – | JAK2 JH1% Inhibition @ 10 μM ([1]; compound at 10 μM, ATP 10 μM): A (percent inhibition at 10 μM lower than 50); Tyk2 JH1% Inhibition @ 10 μM [2]: A (percent inhibition at 10 μM lower than 50)
CNc1cc(Nc2cccnc2OC)nc2c(C(=O)N[C@@H]3CCC[C@H]3O)cnn12 [I-448, (R)—N-((1R,2R)-2-hydroxycyclopentyl)-5-((2-methoxypyridin-3-yl)amino)-7-(methylamino)pyrazolo[1,5-a]pyrimidine-3-carboxamide] | – | JAK2 JH1% Inhibition @ 10 μM ([1]; compound at 10 μM, ATP 10 μM): A (percent inhibition at 10 μM lower than 50); Tyk2 JH1% Inhibition @ 10 μM [2]: A (percent inhibition at 10 μM lower than 50)
CNc1cc(Nc2cccnc2OC2CC2)nc2c(C(=O)N[C@H]3CC[C@H](O)C3)cnn12 [I-489, 5-((2-cyclopropoxypyridin-3-yl)amino)-N-((1S,3S)-3-hydroxycyclopentyl)-7-(methylamino)pyrazolo[1,5-a]pyrimidine-3-carboxamide] | – | JAK2 JH1% Inhibition @ 10 μM ([1]; compound at 10 μM, ATP 10 μM): A (percent inhibition at 10 μM lower than 50); Tyk2 JH1% Inhibition @ 10 μM [2]: A (percent inhibition at 10 μM lower than 50)
CNc1cc(Nc2cccn(C3CCOCC3)c2=O)nc2c(C(=O)N[C@H]3CC[C@@H]3O)cnn12 [I-596] | – | JAK2 JH1% Inhibition @ 10 μM ([1]; compound at 10 μM, ATP 10 μM): A (percent inhibition at 10 μM lower than 50); Tyk2 JH1% Inhibition @ 10 μM [2]: A (percent inhibition at 10 μM lower than 50)
CNc1cc(Nc2cccn([C@H]3CC[C@H](OC)CC3)c2=O)nc2c(C(=O)N[C@H]3CC[C@@H]3O)cnn12 [I-636] | – | JAK2 JH1% Inhibition @ 10 μM ([1]; compound at 10 μM, ATP 10 μM): A (percent inhibition at 10 μM lower than 50); Tyk2 JH1% Inhibition @ 10 μM [2]: A (percent inhibition at 10 μM lower than 50)
CNc1cc(Nc2cccc([C@@H]3CCCCO3)n2)nc2c(C(=O)N[C@@H]3CC[C@@H]3O)cnn12 [I-646] | – | JAK2 JH1% Inhibition @ 10 μM ([1]; compound at 10 μM, ATP 10 μM): A (percent inhibition at 10 μM lower than 50); Tyk2 JH1% Inhibition @ 10 μM [2]: A (percent inhibition at 10 μM lower than 50)
CNc1cc(Nc2cccc([C@H]3CCCOC3)n2)nc2c(C(=O)N[C@H]3CC[C@@H]3O)cnn12 [I-666] | – | JAK2 JH1% Inhibition @ 10 μM ([1]; compound at 10 μM, ATP 10 μM): A (percent inhibition at 10 μM lower than 50); Tyk2 JH1% Inhibition @ 10 μM [2]: A (percent inhibition at 10 μM lower than 50)
CNc1cc(Nc2cccn(-c3cccnc3C)c2=O)nc2c(C(=O)N[C@H]3CC[C@@H]3OC)cnn12 [I-865] | – | inhibition at 10 µM ([1]; 10 μM compound, 10 μM ATP): < 50%
CNc1cc(Nc2cccn([C@H]3CCCOC3)c2=O)nc2c(C(=O)N[C@@H]3CC[C@H]3OC)cnn12 [I-876] | – | JAK2 JH1% Inhibition @ 10 μM ([1]; 10 μM compound, 10 μM ATP): A (percent inhibition at 10 μM lower than 50)
CNc1cc(Nc2cccn([C@@H]3CCCOC3)c2=O)nc2c(C(=O)N[C@H]3CC[C@@H]3OC)cnn12 [I-903, N-((1S,2S)-2-methoxycyclobutyl)-7-(methylamino)-5-((2-oxo-1-((R)-tetrahydro-2H-pyran-3-yl)-1,2-dihydropyridin-3-yl)amino)pyrazolo[1,5-a]pyrimidine-3-carboxamide] | – | inhibition at 10 µM ([1]; 10 μM compound, 10 μM ATP): < 50%
CNc1cc(Nc2cccn(-c3cccnc3C)c2=O)nc2c(C(=O)N[C@H]3CC[C@@H]3OC)cnn12 [I-924] | – | JAK2 JH1% Inhibition @ 10 μM ([1]; 10 μM compound, 10 μM ATP): A (percent inhibition at 10 μM lower than 50)
CNc1cc(Nc2cccn(-c3cccnc3C)c2=O)nc2c(C(=O)N[C@@H]3CC[C@H]3OC)cnn12 [I-925] | – | inhibition at 10 µM ([1]; 10 μM compound, 10 μM ATP): < 50%
CNc1cc(Nc2cccn(-c3cncc(F)c3)c2=O)nc2c(C(=O)N[C@H]3CC[C@@H]3OC)cnn12 [I-1084] | – | inhibition at 10 µM ([1]; 10 μM compound, 10 μM ATP): < 50%
CNc1cc(Nc2cccn(-c3cncc(F)c3)c2=O)nc2c(C(=O)N[C@@H]3CC[C@H]3OC)cnn12 [I-1085] | – | inhibition at 10 µM ([1]; 10 μM compound, 10 μM ATP): < 50%
CNc1cc(Nc2cccn(C3CCOCC3)c2=O)nc2c(C(=O)N[C@@H]3CC[C@H](O)C3)cnn12 [I-1357] | > 10 | –
CNc1cc(Nc2cccn([C@H]3CCCC[C@H]3OC)c2=O)nc2c(C(=O)N[C@@H]3CC[C@H]3OC)cnn12 [I-1376] | > 10 | –
CNc1cc(Nc2cccn([C@@H]3CCCN(CCF)C3)c2=O)nc2c(C(=O)N[C@@H]3CC[C@H]3OC)cnn12 [I-1383] | 1 to 10 | –
CNc1cc(-c2cn(C(C)C)c3ncc(F)cc23)nc2c(C(=O)N[C@@H]3CC[C@@H]3O)cnn12 [I-1386] | 1 to 10 | –
CNc1cc(Nc2cccn(C3CC(F)(F)C3)c2=O)nc2c(C(=O)N[C@H]3CC[C@@H]3O)cnn12 [I-1390] | 1 to 10 | –
CNc1cc(Nc2cccn([C@@H]3C[C@H]3F)c2=O)nc2c(C(=O)NCC(C)(C)CO)cnn12 [I-1399] | 1 to 10 | –
CNc1cc(Nc2cccn([C@@H]3C[C@H]3F)c2=O)nc2c(C(=O)N[C@@H]3CC[C@H]3O)cnn12 [I-1402] | 1 to 10 | –
CNc1cc(-c2cn(C3CCOCC3)c3ncccc23)nc2c(C(=O)N[C@H]3CC[C@@H]3O)cnn12 [I-1405] | 1 to 10 | –
CNc1cc(Nc2cccn(C(C)C)c2=O)nc2c(C(=O)N[C@H]3COC[C@H]3O)cnn12 [I-1406] | > 10 | –
CNc1cc(Nc2cccn([C@@H]3CCCOC3)c2=O)nc2c(C(=O)N[C@H]3C[C@@H]3OC)cnn12 [I-1414] | > 10 | –

Continued, in another order:

Kd [3] [nM] | Structure (SMILES) | further results
1 to 10 | CNc1cc(Nc2cccn([C@H]3CCCN(CCC#N)C3)c2=O)nc2c(C(=O)NC3CC3)cnn12 [I-1347, (S)-5-((1-(1-(2-cyanoethyl)piperidin-3-yl)-2-oxo-1,2-dihydropyridin-3-yl)amino)-N-cyclopropyl-7-(methylamino)pyrazolo[1,5-a]pyrimidine-3-carboxamide] | –
< 0.2 | CNc1cc(Nc2cccn(C3CCCCC3)c2=O)nc2c(C(=O)N[C@@H]3COC[C@@H]3O)cnn12 [I-1348] | –
1 to 10 | CNc1cc(Nc2cccn(C3CCCCC3)c2=O)nc2c(C(=O)N[C@H]3COC[C@H]3O)cnn12 [I-1349] | –
< 0.2 | CNc1cc(Nc2cccn([C@@H]3CC[C@@H]3O)c2=O)nc2c(C(=O)N[C@H]3CC[C@@H]3OC)cnn12 [I-1351] | –
< 0.2 | CNc1cc(-c2cn(C3CC3)c3ncccc23)nc2c(C(=O)N[C@H]3COC[C@H]3O)cnn12 [I-1356] | –
< 0.2 | CNc1cc(Nc2cccn([C@H]3CCC[C@@H](C#N)C3)c2=O)nc2c(C(=O)N[C@@H]3C[C@@H]3F)cnn12 [I-1360] | –
0.2 to 1 | CNc1cc(Nc2cccn([C@H]3CCC[C@@H](C#N)C3)c2=O)nc2c(C(=O)NC3CC3)cnn12 [I-1361] | –
0.2 to 1 | CNc1cc(-c2cn([C@H]3CCN(CCF)C3)c3ncccc23)nc2c(C(=O)NC3CC3)cnn12 [I-1363] | –
< 0.2 | CNc1cc(-c2cn([C@@H]3CCN(CCF)C3)c3ncccc23)nc2c(C(=O)NC3CC3)cnn12 [I-1367, (R)—N-cyclopropyl-5-(1-(1-(2-fluoroethyl)pyrrolidin-3-yl)-1H-pyrrolo[2,3-b]pyridin-3-yl)-7-(methylamino)pyrazolo[1,5-a]pyrimidine-3-carboxamide] | –
< 0.2 | CNc1cc(Nc2cccn(-c3cnn(C)c3F)c2=O)nc2c(C(=O)N[C@@H]3CC[C@H]3OC)cnn12 [I-1368] | –
1 to 10 | CNc1cc(Nc2cccn(C(C)C)c2=O)nc2c(C(=O)N[C@@H]3CC[C@]3(C)O)cnn12 [I-1370] | –
< 0.2 | CNc1cc(Nc2cccn(C(C)C)c2=O)nc2c(C(=O)N[C@H]3CC[C@@]3(C)O)cnn12 [I-1371] | –
0.2 to 1 | CNc1cc(Nc2cccn([C@H]3CCC[C@H]3O)c2=O)nc2c(C(=O)N[C@@H]3CC[C@H]3OC)cnn12 [I-1372] | –
1 to 10 | CNc1cc(Nc2cccn([C@H]3CCC[C@H](OC)C3)c2=O)nc2c(C(=O)N[C@H]3CC[C@@H]3OC)cnn12 [I-1375] | –
< 0.2 | CNc1cc(Nc2cccn([C@H]3CCN(CCF)C3)c2=O)nc2c(C(=O)N[C@@H]3CC[C@H]3OC)cnn12 [I-1380] | –
0.2 to 1 | CNc1cc(Nc2cccn([C@H]3CC[C@@H]3O)c2=O)nc2c(C(=O)N[C@@H]3CC[C@H]3OC)cnn12 [I-1384] | –
< 0.2 | CNc1cc(Nc2cccn(C3CC(F)(F)C3)c2=O)nc2c(C(=O)N[C@@H]3CC[C@@H]3O)cnn12 [I-1391] | –
0.2 to 1 | CNc1cc(-c2cn(C(C)C)c3ncc(F)cc23)nc2c(C(=O)N[C@@H]3CC[C@H]3OC)cnn12 [I-1392] | –
< 0.2 | CNc1cc(Nc2cccn([C@@H]3CCC[C@@H]3O)c2=O)nc2c(C(=O)N[C@@H]3CC[C@H]3OC)cnn12 [I-1393] | –
< 0.2 | CNc1cc(Nc2cccn([C@@H]3CCC[C@@H]3O)c2=O)nc2c(C(=O)N[C@H]3CC[C@@H]3OC)cnn12 [I-1394] | –
0.2 to 1 | CNc1cc(Nc2cccn([C@H]3CCC[C@H](O)C3)c2=O)nc2c(C(=O)N[C@H]3CC[C@@H]3OC)cnn12 [I-1396] | –
< 0.2 | CNc1cc(Nc2cccn([C@@H]3C[C@H]3F)c2=O)nc2c(C(=O)N[C@H]3CC[C@@H]3O)cnn12 [I-1401] | –
0.2 to 1 | CNc1cc(Nc2cccn([C@@H]3C[C@H]3F)c2=O)nc2c(C(=O)N[C@@H]3CC[C@@H]3O)cnn12 [I-1403] | –
< 0.2 | CNc1cc(Nc2cccn(-c3cccc(F)c3)c2=O)nc2c(C(=O)N[C@H]3COC[C@H]3O)cnn12 [I-1407] | –
0.2 to 1 | CNc1cc(-c2cn(C3CCOCC3)c3ncccc23)nc2c(C(=O)N[C@H]3COC[C@H]3O)cnn12 [I-1408] | –
0.2 to 1 | CNc1cc(-c2cn(C(C)C)c3ncccc23)nc2c(C(=O)N[C@H]3CC[C@@]3(C)O)cnn12 [I-1409] | –
< 0.2 | CNc1cc(Nc2cccn([C@H]3CC[C@H]3O)c2=O)nc2c(C(=O)N[C@H]3CC[C@@H]3OC)cnn12 [I-1410] | –
0.2 to 1 | CNc1cc(Nc2cccn(-c3ccccn3)c2=O)nc2c(C(=O)N[C@H]3C[C@@H]3OC)cnn12 [I-1412] | –

From patent US10508120B2, “TYK2 inhibitors and uses thereof” (Nimbus Lakshmi, Inc., priority 2017, dated 2019)
